According to patent publication US12661410B2, “Compounds for targeted degradation of RET” (C4 Therapeutics, Inc., priority 2020, dated 2026):
Changes are numbered by the printed parent chain. Read-outs that look alike come from different tables or passages of the source.

How the values were obtained:
RET(KD: 658-1114 G810R) = molecular target: T1, RET(KD: 658-1114 G810R) (Homo sapiens, UniProt P07949, G810R); experiment: HiBiT-Degradation, RET G810R degradation assay (Nano-Glo HiBiT Lytic), 293T.165 cells; assay type: cell-based; details: for Emax / DC50: 6.0 hours
T1 construct: 658-1114; expressed in transfected cells; host or cells: 293T.165 (293T cells, generated in-house)
T1 sequence (P07949 658-1114 G810R): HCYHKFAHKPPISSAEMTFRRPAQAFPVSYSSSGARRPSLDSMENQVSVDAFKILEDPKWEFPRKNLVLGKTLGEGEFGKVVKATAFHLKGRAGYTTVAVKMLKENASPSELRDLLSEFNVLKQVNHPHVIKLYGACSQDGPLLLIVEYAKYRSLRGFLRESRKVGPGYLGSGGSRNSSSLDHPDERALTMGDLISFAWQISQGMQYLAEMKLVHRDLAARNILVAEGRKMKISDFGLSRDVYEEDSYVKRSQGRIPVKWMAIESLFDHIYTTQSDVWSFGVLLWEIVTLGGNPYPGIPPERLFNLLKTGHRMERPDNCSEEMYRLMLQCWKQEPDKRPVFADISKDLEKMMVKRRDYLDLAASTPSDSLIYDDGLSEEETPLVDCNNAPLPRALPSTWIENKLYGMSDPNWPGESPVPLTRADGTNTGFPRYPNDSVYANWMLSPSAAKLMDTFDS
Outline: (§1)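 Degradation quantified by HiBiT lytic luminescence in 293T cells expressing tagged WT or G810R RET kinase domain after 6 h dosing up to 10 μM; DC50 and Emax fitted.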

RET (658-1114) = molecular target: T2, RET (658-1114) (Homo sapiens, UniProt P07949); experiment: HiBiT-Degradation, RET wild-type degradation assay (Nano-Glo HiBiT Lytic), 293T.144 cells; assay type: cell-based; details: for DC50 / Emax: 6.0 hours
T2 construct: 658-1114; expressed in transfected cells; host or cells: 293T.144 (293T cells, generated in-house)
T2 sequence (P07949 658-1114): T1 sequence (P07949 658-1114 G810R) with R153G
Outline: as §1

[1] = % remaining protein, read-out: 293T.165 RET(KD: 658-1114 G810R) 6.0 hours (Emax)
[2] = half-maximal degradation concentration, read-out: 293T.165 RET(KD: 658-1114 G810R) 6.0 hours (DC50)
[3] = RET G810R, read-out: HiBiT-Degradation 293T.165 RET(KD: 658-1114 G810R) 6.0 hours (DC50)
[4] = RET G810R, read-out: HiBiT-Degradation 293T.165 RET(KD: 658-1114 G810R) 6.0 hours (Emax)
[5] = RET wild-type, read-out: HiBiT-Degradation 293T.144 RET (658-1114) 6.0 hours (DC50)
[6] = RET wild-type, read-out: HiBiT-Degradation 293T.144 RET (658-1114) 6.0 hours (Emax)
[7] = % remaining protein, read-out: 293T.144 RET (658-1114) 6.0 hours (Emax)
[8] = half-maximal degradation concentration, read-out: 293T.144 RET (658-1114) 6.0 hours (DC50)
[9] = HiBiT-Degradation, read-out: 293T.165 RET(KD: 658-1114 G810R) 6.0 hours (DC50)
[10] = HiBiT-Degradation, read-out: 293T.144 RET (658-1114) 6.0 hours (DC50)
[11] = HiBiT-Degradation, read-out: 293T.144 RET (658-1114) 6.0 hours (Emax)

Structure (SMILES)	Emax (RET(KD: 658-1114 G810R); [1]) [%]	DC50 (RET(KD: 658-1114 G810R); [2]) [µM]	HiBiT-Degradation 293T.165 RET(KD: 658-1114 G810R) 6.0 hours (IP) [nM] (RET(KD: 658-1114 G810R); RET G810R)	DC50 (RET(KD: 658-1114 G810R); [3]) [µM]	Emax (RET(KD: 658-1114 G810R); [4]) [%]	HiBiT-Degradation 293T.144 RET (658-1114) 6.0 hours (IP) [nM] (RET (658-1114); RET wild-type)	DC50 (RET (658-1114); [5]) [µM]	Emax (RET (658-1114); [6]) [%]	293T.165 RET(KD: 658-1114 G810R) 6.0 hours (IP) [nM] (RET(KD: 658-1114 G810R))	293T.144 RET (658-1114) 6.0 hours (IP) [nM] (RET (658-1114))	Emax (RET (658-1114); [7]) [%]	DC50 (RET (658-1114); [8]) [µM]	293T.165 RET(KD: 658-1114 G810R) 6.0 hours (Emax) (RET(KD: 658-1114 G810R); HiBiT-Degradation)	293T.165 RET(KD: 658-1114 G810R) 6.0 hours (IP) [nM] (RET(KD: 658-1114 G810R); HiBiT-Degradation)	DC50 (RET(KD: 658-1114 G810R); [9]) [µM]	293T.144 RET (658-1114) 6.0 hours (IP) [nM] (RET (658-1114); HiBiT-Degradation)	DC50 (RET (658-1114); [10]) [µM]	Emax (RET (658-1114); [11]) [%]
N#Cc1cnn2cc(-c3cnn(C4CCN(C(=O)CN5CCC(c6ccc(NC7CCC(=O)NC7=O)cc6F)CC5)CC4)c3)cc(-c3ccc(N4CC5CC(C4)N5Cc4cccnc4)nc3)c12 (centres unmarked) [Compound 68, 6-[1-[1-[2-[4-[4-[(2,6-dioxo-3-piperidyl)amino]-2-fluoro-phenyl]-1-piperidyl]acetyl]-4-piperidyl]pyrazol-4-yl]-4-[6-[6-(3-pyridylmethyl)-3,6-diazabicyclo[3.1.1]heptan-3-yl]-3-pyridyl]pyrazolo[1,5-a]pyridine-3-carbonitrile]	< 30	< 0.05	++++ (< 50 nM = ++++)	< 0.05	< 30	++++ (< 50 nM = ++++)	< 0.05	< 30										
CCC1(C(=O)NC2CCOCC2)CCN(c2ccc(-c3nc(-c4cnn([C@H]5CC[C@H](N6CCC(c7ccc(N[C@@H]8CCC(=O)NC8=O)cc7F)CC6)CC5)c4)cn4ncc(C#N)c34)cn2)CC1 (stereo in doubt) [Compound 143, 1-(5-(3-cyano-6-(1-((1R,4r)-4-(4-(4-(((R)-2,6-dioxopiperidin-3-yl)amino)-2-fluorophenyl)piperidin-1-yl)cyclohexyl)-1H-pyrazol-4-yl)pyrazolo[1,5-a]pyrazin-4-yl)pyridin-2-yl)-4-ethyl-N-(tetrahydro-2H-pyran-4-yl)piperidine-4-carboxamide]	< 30	< 0.05							++++ (<50 nM = ++++)	++++ (<50 nM = ++++)	< 30	< 0.05						
CCC1(C(=O)NC(C)C)CCN(c2ccc(-c3nc(-c4cnn(C5CCN(C(=O)CC6(O)CCN(c7ccc(N[C@@H]8CCC(=O)NC8=O)cc7Cl)CC6)CC5)c4)cn4ncc(C#N)c34)cn2)CC1 (single isomer, unassigned) [Compound 11]	< 30	< 0.05											++++ (< 30% = ++++)	++++ (< 50 nM = ++++)	< 0.05	++++ (< 50 nM = ++++)	< 0.05	< 30
CCC1(C(=O)NC(C)(C)C)CCN(c2ccc(-c3nc(-c4cnn([C@H]5CC[C@H](N6CCC(c7ccc(N[C@@H]8CCC(=O)NC8=O)cc7F)CC6)CC5)c4)cn4ncc(C#N)c34)cn2)CC1 (single isomer, unassigned) [Compound 146]	< 30	< 0.05							++++ (<50 nM = ++++)	++++ (<50 nM = ++++)	< 30	< 0.05						
N#Cc1cnn2cc(-c3ccc(C4CCN(C(=O)CC5(O)CCN(c6ccc(NC7CCC(=O)NC7=O)cc6F)CC5)CC4)cc3)nc(-c3ccc(N4CCN(C(=O)c5ccon5)CC4)nc3)c12 (centres unmarked) [Compound 175, 6-[4-[1-[2-[1-[4-[(2,6-dioxo-3-piperidyl)amino]-2-fluoro-phenyl]-4-hydroxy-4-piperidyl]acetyl]-4-piperidyl]phenyl]-4-[6-[4-(isoxazole-3-carbonyl)piperazin-1-yl]-3-pyridyl]pyrazolo[1,5-a]pyrazine-3-carbonitrile]	< 50	< 0.1							++++ (<50 nM = ++++)	++++ (<50 nM = ++++)	< 30	< 0.05						
CC(C)CC(=O)N1CCN(c2ccc(-c3nc(-c4cnn(C5CCN(C(=O)CC6CCN(c7ccc(NC8CCC(=O)NC8=O)cc7F)CC6)CC5)c4)cn4ncc(C#N)c34)cn2)CC1 (centres unmarked) [Compound 185, 6-(1-(1-(2-(1-(4-((2,6-dioxopiperidin-3-yl)amino)-2-fluorophenyl)piperidin-4-yl)acetyl)piperidin-4-yl)-1H-pyrazol-4-yl)-4-(6-(4-(3-methylbutanoyl)piperazin-1-yl)pyridin-3-yl)pyrazolo[1,5-a]pyrazine-3-carbonitrile]	< 50	< 0.1							++++ (<50 nM = ++++)	++++ (<50 nM = ++++)	< 30	< 0.05						
N#Cc1cnn2cc(-c3ccc(N4CCN(C(=O)CN5CCC(c6ccc(NC7CCC(=O)NC7=O)cc6F)CC5)CC4)cc3)cc(-c3ccc(N4CCN(Cc5ccccn5)CC4)nc3)c12 (centres unmarked) [Compound 28, 6-(4-(4-(2-(4-(4-((2,6-Dioxopiperidin-3-yl)amino)-2-fluorophenyl)piperidin-1-yl)acetyl)piperazin-1-yl)phenyl)-4-(6-(4-(pyridin-2-ylmethyl)piperazin-1-yl)pyridin-3-yl)pyrazolo[1,5-a]pyridine-3-carbonitrile]	< 30	< 0.1											++++ (< 30% = ++++)	++++ (< 50 nM = ++++)	< 0.1	++++ (< 50 nM = ++++)	< 0.05	< 30
CCC1(C(=O)NC2CCC2)CCN(c2ccc(-c3nc(-c4cnn([C@H]5CC[C@H](N6CCC(c7ccc8c(c7)CCN8[C@@H]7CCC(=O)NC7=O)CC6)CC5)c4)cn4ncc(C#N)c34)cn2)CC1 (single isomer, unassigned) [Compound 129]	< 30	< 0.05							++++ (<50 nM = ++++)	++++ (<50 nM = ++++)	< 30	< 0.05						
N#Cc1cnn2cc(-c3cnn([C@H]4CC[C@H](N5CCN(c6ccc(NC7CCC(=O)NC7=O)cc6F)CC5)CC4)c3)nc(-c3ccc(N4CC5COCC(C4)N5Cc4ccccn4)nc3)c12 (single isomer, unassigned) [Compound 157, 6-(1-((1r, 4r)-4-(4-(4-((2,6-dioxopiperidin-3-yl)amino)-2-fluorophenyl)piperazin-1-yl)cyclohexyl)-1H-pyrazol-4-yl)-4-(6-(9-(pyridin-2-ylmethyl)-3-oxa-7,9-diazabicyclo[3.3.1]nonan-7-yl)pyridin-3-yl)pyrazolo[1,5-a]pyrazine-3-carbonitrile]	< 30	< 0.05							++++ (<50 nM = ++++)	++++ (<50 nM = ++++)	< 30	< 0.05						
CN(Cc1ccc(-c2cn3ncc(C#N)c3c(-c3ccc(N4CCN(Cc5ccccn5)CC4)nc3)n2)cc1)C(=O)CN1CCC(c2ccc(NC3CCC(=O)NC3=O)cc2)CC1 (centres unmarked) [Compound 83, N-[[4-[3-cyano-4-[6-[4-(2-pyridylmethyl)piperazin-1-yl]-3-pyridyl]pyrazolo[1,5-a]pyrazin-6-yl]phenyl]methyl]-2-[4-[4-[(2,6-dioxo-3-piperidyl)amino]phenyl]-1-piperidyl]-N-methyl-acetamide]	< 50	< 0.1	++++ (< 50 nM = ++++)	< 0.1	< 50	++++ (< 50 nM = ++++)	< 0.05	< 30										
